From patent publication US5914339A, “Substituted 1,3-benzodioxoles” (American Home Products Corporation, priority 1997, dated 1999)
Where a name gives a salt, the structure may show the parent alone.

biological target: human β2 adrenergic receptor (Homo sapiens, UniProt P07550); assay: cell-based; conditions: not given
Experimental: The activity of the test compounds on human β-adrenergic receptors was determined with Chinese hamster ovary (CHO) cells transfected with human β2, or β1 adrenergic receptors. Agonist activity is indicated by increased cAMP levels in the CHO cells. Selectivity of the test compounds for the β3 receptor was assessed by comparison with results in β2 and β1 adrenergic receptor transfected cells.
1). Chinese hamster ovary (CHO) cells transfected with human β2, or β1 adrenergic receptors were used in the assay.
2). Cells were grown to confluent conditions in 24 well plates.
3). Drugs were dissolved in DMSO at a concentration of 10 μM.
4). Cells were incubated with drug at 10 nM concentration for 10 min at 37° C.
5). Cell cAMP concentrations were assayed using a scintillation proximity assay kit from Amersham Corp., Chicago, Ill.
6). Activities for the test compounds are expressed as a percentage of the isoproterenol response.
Production of the CHO cells transfected with human β2, or β1 adrenergic receptors, and compound test procedures utilizing the CHO cells, are described by Emorine et al. in their article "Molecular Characterization of the Human Beta3 -Adrenergic Receptor", Science 1989, 245(8), 1118-1121 and by Muzzin et al. in the article "An Adipose Tissue-Specific Beta3 -Adrenergic Receptor", J. Biol. Chem.1991, 266, 24053-24058.
^a Human β receptors expressed in Chinese hamster ovary cells,
compounds tested at 10 nM, results expressed as % of isoproterenol
activity (increase in cAMP) at 10 μM. EC50 (μM) values
determined for selected compounds.

human β2 adrenergic receptor, sequence (P07550 whole entry): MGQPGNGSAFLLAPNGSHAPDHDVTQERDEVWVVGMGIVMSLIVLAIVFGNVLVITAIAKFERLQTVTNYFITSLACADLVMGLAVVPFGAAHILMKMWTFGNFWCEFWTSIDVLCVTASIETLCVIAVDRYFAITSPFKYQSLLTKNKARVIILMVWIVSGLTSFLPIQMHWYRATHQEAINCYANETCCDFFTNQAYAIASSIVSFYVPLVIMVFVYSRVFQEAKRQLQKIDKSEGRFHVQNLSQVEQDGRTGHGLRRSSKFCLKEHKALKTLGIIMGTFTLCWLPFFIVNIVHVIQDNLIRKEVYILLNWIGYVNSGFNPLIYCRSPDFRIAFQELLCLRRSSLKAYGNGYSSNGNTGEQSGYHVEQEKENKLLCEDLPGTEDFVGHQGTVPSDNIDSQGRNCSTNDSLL

SMILES	EC50 [µM]
CC(Cc1ccc2c(c1)OC(C(=O)O)(C(=O)OC(C)C)O2)NCC(O)c1cccc(Cl)c1 (stereo not drawn) [Example 22, 5-{2-[2-(3-Chloro-phenyl)-2-hydroxy-ethylamino]-propyl}-benzo[1,3]dioxole-2,2-dicarboxylic acid isopropyl ester]	0.015

same assay, conditions: 10 min; compounds tested at 10 nM, isoproterenol at 10 μM; CHO cells, 10 min at 37° C; read-out: β2: % of isoproterenol activity (increase in cAMP)

SMILES	activation at 0.01 µM [%]
C[C@H](Cc1ccc2c(c1)OC(C(=O)OCC1CCCCO1)(C(=O)OCC1CCCCO1)O2)NC[C@H](O)c1cccc(Cl)c1 (stereo partly drawn) [Example 90, 5-{(2R)-2-[(2R)-2-(3-Chloro-phenyl)-2-hydroxy-ethylamino]-propyl}-benzo[1,3]dioxole-2,2-dicarboxylic aicd bis-(tetrahydro-pyran-2-ylmethyl) ester]	7
CCCCCC(=O)OCOC(=O)C1(C(=O)OCOC(=O)CCCCC)Oc2ccc(CC(C)NCC(O)c3cccc(Cl)c3)cc2O1 (stereo not drawn) [Example 48, 5-{2-[2-(3-Chloro-phenyl)-2-hydroxyethylamino]propyl}benzo[1,3] dioxole-2,2-dicarboxylic acid bis-hexanoyloxymethyl ester]	4
CC(C)CCC(=O)OCOC(=O)C1(C(=O)OCOC(=O)CCC(C)C)Oc2ccc(CC(C)NCC(O)c3cccc(Cl)c3)cc2O1 (stereo not drawn) [Example 47, 5-{2-[2-(3-Chloro-phenyl)-2-hydroxyethylamino]propyl}benzo[1,3] dioxole-2,2-dicarboxylic acid bis-(4-methyl-pentanoyloxymethyl) ester]	0
C[C@H](Cc1ccc2c(c1)OC(C(=O)OCC=Cc1ccccc1)(C(=O)OCC=Cc1ccccc1)O2)NC[C@H](O)c1cccc(Cl)c1 (stereo partly drawn) [Example 99, 5-{(2R)-2-[(2R)-2-(3-Chloro-phenyl)-2-hydroxy-ethylamino]-propyl}-benzo[1,3]dioxole-2,2-dicarboxylic acid bis-(3-phenyl-allyl)ester]	16
CC(OC(=O)OC1CCCCC1)OC(=O)C1(C(=O)OC(C)OC(=O)OC2CCCCC2)Oc2ccc(C[C@@H](C)NC[C@H](O)c3cccc(Cl)c3)cc2O1 (stereo partly drawn) [Example 59, 5-{(2R)-2-[(2R)-2-(3-Chloro-phenyl)-2-hydroxy-ethylamino]-propyl}-benzo[1,3]dioxole-2,2-dicarboxylic acid bis-[1-(cyclohexyloxycarbonyloxy)-ethyl] ester]	10
CC(Cc1ccc2c(c1)OC(C(=O)OCCOC(C)(C)C)(C(=O)OCCOC(C)(C)C)O2)NCC(O)c1cccc(Cl)c1 (stereo not drawn) [Example 6, 5-{2-[2-(3-Chloro-phenyl)-2-hydroxy-ethylamino]-propyl}-benzo[1,3]dioxole-2,2-dicarboxylic acid bis-(2-tert-butoxy-ethyl) ester]	3

More lines, now with the values ahead:

activation at 0.01 µM [%]	SMILES
7	C[C@H](Cc1ccc2c(c1)OC(C(=O)OCC1CCCO1)(C(=O)OCC1CCCO1)O2)NC[C@H](O)c1cccc(Cl)c1 (stereo partly drawn) [Example 91, 5-{(2R)-2-[(2R)-2-(3-Chloro-phenyl)-2-hydroxy-ethylamino]-propyl}-benzo[1,3]dioxole-2,2-dicarboxylic aicd bis-(tetrahydro-furan-2-ylmethyl) ester]
2	CC(Cc1ccc2c(c1)OC(C(=O)OCC1CCCCC1)(C(=O)OCC1CCCCC1)O2)NCC(O)c1cccc(Cl)c1 (stereo not drawn) [Example 34, 5-{2-[2-(3-Chloro-phenyl)-2-hydroxy-ethylamino]-propyl}-benzo[1,3]dioxole-2,2-dicarboxylic acid bis-cyclohexylmethyl ester]
0	CCCC(=O)OCOC(=O)C1(C(=O)OCOC(=O)CCC)Oc2ccc(CC(C)NCC(O)c3cccc(Cl)c3)cc2O1 (stereo not drawn) [Example 44, 5-{2-[2-(3-Chloro-phenyl)-2-hydroxyethylamino]propyl}benzo[1,3] dioxole-2,2-dicarboxylic acid bis-butyryloxymethyl ester]
0	CC(Cc1ccc2c(c1)OC(C(=O)OCCCl)(C(=O)OCCCl)O2)NCC(O)c1cccc(Cl)c1 (stereo not drawn) [Example 73, 5-{2-[2-(3-Chloro-phenyl)-2-hydroxy-ethylamino]-propyl}-benzo[1,3]dioxole-2,2-dicarboxylic acid bis 2-(Chloro)ethyl ester]
2	C[C@H](Cc1ccc2c(c1)OC(C(=O)OCCCOCc1ccccc1)(C(=O)OCCCOCc1ccccc1)O2)NC[C@H](O)c1cccc(Cl)c1 [Example 104, 5-{(2R)-2-[(2R)-2-(3-Chloro-phenyl)-2-hydroxy-ethylamino]-propyl}benzo[1,3]dioxole-2,2-dicarboxylic acid bis-(3-benzyloxy-propyl)ester]
2	CCCCCCCCCCOC(=O)C1(C(=O)OCCCCCCCCCC)Oc2ccc(CC(C)NCC(O)c3cccc(Cl)c3)cc2O1 (stereo not drawn) [Example 19, 5-{2-[2-(3-Chloro-phenyl)-2-hydroxy-ethylamino]-propyl}-benzo[1,3]dioxole-2,2-dicarboxylic acid bis-decyl ester]
2	CCOC(=O)COC(=O)C1(C(=O)OCC(=O)OCC)Oc2ccc(CC(C)NCC(O)c3cccc(Cl)c3)cc2O1 (stereo not drawn) [Example 28, 5-{2-[2-(3-Chloro-phenyl)-2-hydroxy-ethylamino]-propyl}-benzo[1,3]dioxole-2,2-dicarboxylic acid bis-ethoxycarbonylmethyl ester]
0	CCC(=O)OCOC(=O)C1(C(=O)OCOC(=O)CC)Oc2ccc(CC(C)NCC(O)c3cccc(Cl)c3)cc2O1 (stereo not drawn) [Example 43, 5-{2-[2-(3-Chloro-phenyl)-2-hydroxyethylamino]propyl}benzo[1,3] dioxole-2,2-dicarboxylic acid bis-propionyloxymethyl ester]
7	CC(Cc1ccc2c(c1)OC(C(=O)OC(C)OC(=O)CC(C)(C)C)(C(=O)OC(C)OC(=O)CC(C)(C)C)O2)NCC(O)c1cccc(Cl)c1 (stereo not drawn) [Example 54]
3	CC(Cc1ccc2c(c1)OC(C(=O)O)(C(=O)O)O2)N1COC(c2cccc(Cl)c2)C1 (stereo not drawn) [Example 66]
0	CCC(=O)OC(C)OC(=O)C1(C(=O)OC(C)OC(=O)CC)Oc2ccc(CC(C)NCC(O)c3cccc(Cl)c3)cc2O1 (stereo not drawn) [Example 51, 5-{2-[2-(3-Chloro-phenyl)-2-hydroxyethylamino]propyl}benzo[1,3] dioxole-2,2-dicarboxylic acid bis-(1-propionyloxy-ethyl) ester]

same assay, conditions: CHO, 10 min, read-out: β2: % of isoproterenol activity (increase in cAMP)

SMILES	activation at 0.01 µM [%]
CC(Cc1ccc2c(c1)OC(C(=O)OCCC[Si](C)(C)C)(C(=O)OCCC[Si](C)(C)C)O2)NCC(O)c1cccc(Cl)c1 (stereo not drawn) [Example 32, 5-{2-[2-(3-Chloro-phenyl)-2-hydroxy-ethylamino]-propyl}-benzo[1,3]dioxole-2,2-dicarboxylic acid bis-(3-trimethylsilanyl-propyl) ester]	2
CCCCOCCOC(=O)C1(C(=O)OCCOCCCC)Oc2ccc(CC(C)NCC(O)c3cccc(Cl)c3)cc2O1 (stereo not drawn) [Example 3, 5-{2-[2-(3-Chloro-phenyl)-2-hydroxy-ethylamino]-propyl}-benzo[1,3]dioxole-2,2-dicarboxylic acid bis-(2-butoxy-ethyl) ester hydrochloride salt]	0
CCOCCOC(=O)C1(C(=O)O)Oc2ccc(C[C@@H](C)NC[C@H](O)c3cccc(Cl)c3)cc2O1 (stereo partly drawn) [Example 95, 5-{(2R)-2-[(2R)-2-(3-Chloro-phenyl)-2-hydroxy-ethylamino]-propyl}-benzo[1,3]dioxole-2,2-dicarboxylic acid (2-ethoxy-ethyl) ester]	0
